The source of these data is ChEMBL document CHEMBL3792286, “A convenient and efficient approach to polyfluorosalicylic acids and their tuberculostatic activity” (Bioorg Med Chem Lett, 2016).

In brackets after ≈: the same amount, converted by molar mass. Activity calls are given as the source filed them. The calls are words filed in the database; no cut-off is given here.

The test system of assay [1] is Mycobacterium tuberculosis. The assay is described as follows: microbe, parasite or virus in culture. As to conditions: 240 h.
Assay [2] deals with Mycobacterium tuberculosis.

Compound `O=C(O)c1ccc(F)c(F)c1O` yielded an MIC in assay [1] of 1.5 µg/mL (≈ 8.62 µM).
`O=C(O)c1c(O)c(F)c(F)c(F)c1F` registered an MIC in assay [1] of 0.7 µg/mL (≈ 3.33 µM).
Same read-out and setting: to `O=C(O)c1cc(F)c(F)cc1O` belongs 0.7 µg/mL (≈ 4.02 µM); to `CC1COc2c(N3CCN(C)CC3)c(F)cc3c(=O)c(C(=O)O)cn1c23` (stereo not given) [OFLOXACIN], 0.1 µg/mL (≈ 0.277 µM).
`NNC(=O)c1ccncc1` [ISONIAZID]: the MIC entry in assay [2] is “inactive”.
